Test [1] concerns platelet coagulation. The test is described as follows: Inhibitory activities of test compounds against platelet coagulation ex vivo (oral administration to rats 4 hrs prior to blood collection, ADP-induced, PRP). It counts as in vivo, rat. Conditions: for inhibition at 10 µg/mL: Rattus norvegicus, Platelet, po, 4 h, read-out: Test Example 2 (% inhibition); for Test Example 2 (% inhibition): head prints (10 μg/ml), orally administered to rats 4 hrs prior to blood collection, ADP-induced coagulation in PRP. How it is done:
Three to four male Sprague-Dawley rats (8 weeks of age, Japan SLC., Inc.) per group were used in the present test. […] In the control group, the vehicle was similarly and orally administered at the rate of 1 mL/kg 4 hrs prior to the blood collection. […] The obtained blood containing sodium citrate was centrifuged (230×g for 15 min at room temperature) and PRP fraction was isolated. Furthermore, after PRP was isolated, the blood was further centrifuged (2,000×g for 10 min at room temperature) and PPP fraction was isolated. Platelet count in PRP was determined by automated hematology analyzer (KX-21N, SYSMEX CORPORATION) and adjusted as 5×10^8/ml. After PRP (240 μl) was put into each cuvette, the platelet coagulation was assessed by automated hematology analyzer. After warming at 37° C. for 1.5 min, 10 μl of ADP solution (final concentration: […]) was added, and platelet coagulation was induced. Platelet coagulation was determined for 5 min and the maximum rate of plate coagulation determined.

Test [2] deals with platelet coagulation. The test is described as follows: Inhibitory activities of test compounds against platelet coagulation in vitro (ADP-induced, rat platelet-rich plasma, aggregometer). The class given is cell-based. Conditions: 10 μg/ml test substance in rat PRP, maximum rate of platelet coagulation over 5 min; for inhibition at 10 µg/mL: 5 min, read-out: Test Example 1 (% inhibition). As for the experimental part:
Confirmation of Inhibitory Activities of Test Compounds Against Platelet Coagulation In Vitro
Three to four male Sprague-Dawley rats (8 weeks of age, Japan SLC., Inc.) per group were used in the present test. Platelet coagulation was determined by platelet aggregometer (MCM Hema Tracer 313M, MC Medical, Inc.) according to modified methods described by Born et al. (Journal of Physiology, vol. 168, 178 (1963)). Blood (6.3 ml) was collected from abdominal aorta of rats anesthetized with pentobarbital sodium (40 mg/kg) with a microsyringe containing 0.7 ml of sodium citrate at a concentration of 3.8% as anti-coagulant. The obtained blood containing sodium citrate was centrifuged (230×g for 15 min at room temperature) and plate-rich plasma (hereinafter referred to as PRP) fraction was isolated. Furthermore, after PRP was isolated, the blood was further centrifuged (2,000×g for 10 min at room temperature) and platelet-poor plasma (hereinafter referred to as PPP) fraction was isolated. Platelet count in PRP was determined by automated hematology analyzer (KX-21N, SYSMEX CORPORATION) and adjusted as 5×10^8/ml. After PRP (239 μl) was put into each cuvette, the test substance dissolved in dimethyl sulfoxide (DMSO, 1 μl) was added to the PRP solution and assessed by automated hematology analyzer. In the control group, DMSO solution (1 μl) instead of the test substance solution was added to the PRP solution. After warming at 37° C. for 1.5 min, 10 μl of adenosine-5′-diphosphate (ADP) solution (final concentration: […]) was added, and platelet coagulation was induced. Platelet coagulation was determined for 5 min and the maximum rate of plate coagulation determined.

Where a name gives a salt, the structure may show the parent alone.

In general, inhibition refers to the share of the control response that was lost under treatment. In the case of `O=C(O)CCCCn1ccc(/C=C2\CN(C(C(=O)C3CC3)c3ccccc3F)CCC2S)n1` (stereo not drawn) [Example 121, (E)-3-{[1-(4-Carboxybutyl)-1H-pyrazol-3-yl]methylidene}-1-[2-cyclopropyl-1-(2-fluorophenyl)-2-oxoethyl]-4-sulfanylpiperidine hydrochloride], the inhibition at 10 µg/mL in the test with platelet coagulation [1] came out at 72%; in the test on platelet coagulation [2], 55%.
`CCOC(=O)Cn1ccc(/C=C2/CN(C(C(=O)C3CC3)c3ccccc3F)CCC2S)n1` (stereo not drawn) [Example 154, (Z)-1-[2-Cyclopropyl-1-(2-fluorophenyl)-2-oxoethyl]-3-{[1-(ethoxycarbonylmethyl)-1H-pyrazol-3-yl]methylidene}-4-sulfanylpiperidine hydrochloride]: the inhibition at 10 µg/mL in the test with platelet coagulation [1] came out at 79%.
With `O=C(O)CCn1nnnc1/C=C1\CN(C(C(=O)C2CC2)c2ccccc2F)CCC1S` (stereo not drawn) [Example 258, (E)-3-{[1-(2-Carboxyethyl)-1H-tetrazol-5-yl]methylidene}-1-[2-cyclopropyl-1-(2-fluorophenyl)-2-oxoethyl]-4-sulfanylpiperidine hydrochloride], the inhibition at 10 µg/mL in the test on platelet coagulation [1] was found to be 76%; with platelet coagulation [2], 85%.
The like results for `O=C(O)CCn1nnc(/C=C2\CN(C(C(=O)C3CC3)c3ccccc3F)CCC2S)n1` (stereo not drawn) [Example 257, (E)-3-{[2-(2-Carboxyethyl)-2H-tetrazol-5-yl]methylidene}-1-[2-cyclopropyl-1-(2-fluorophenyl)-2-oxoethyl]-4-sulfanylpiperidine hydrochloride] were, in that order, 51% and 87%.
In the case of `Cl.O=C(C1CC1)C(c1ccccc1F)N1CCC(S)/C(=C/c2c[nH]nn2)C1` (stereo not drawn) [Example 235, (E)-1-[2-Cyclopropyl-1-(2-fluorophenyl)-2-oxoethyl]-4-sulfanyl-3-{[1(2)H-1,2,3-triazol-4(5)-yl]methylidene}piperidine hydrochloride], in the test on platelet coagulation [1], the “Test Example 2 (% inhibition)” value amounted to 54%. The “Test Example 1 (% inhibition)” value with platelet coagulation [2] is reported as 77%.
As for `CCOC(=O)CCn1ccc(/C=C2\CN(C(C(=O)C3CC3)c3ccccc3F)CCC2S)n1` (stereo not drawn) [Example 112, (E)-1-[2-Cyclopropyl-1-(2-fluorophenyl)-2-oxoethyl]-3-({1-[2-(ethoxycarbonyl)ethyl]-1H-pyrazol-3-yl}methylidene)-4-sulfanylpiperidine hydrochloride], the inhibition at 10 µg/mL was found to be 91% in the test with platelet coagulation [1] and 75% with platelet coagulation [2].
The corresponding values for `O=C(O)CCCn1ccc(/C=C2\CN(C(C(=O)C3CC3)c3ccccc3F)CCC2S)n1` (stereo not drawn) [Example 117, (E)-3-{[1-(3-Carboxypropyl)-1H-pyrazol-3-yl]methylidene}-1-[2-cyclopropyl-1-(2-fluorophenyl)-2-oxoethyl]-4-sulfanylpiperidine hydrochloride] are 63% and 70%.
For `Cl.O=C(O)CCn1cc(/C=C2\CN(C(C(=O)C3CC3)c3ccccc3F)CCC2S)cn1` (stereo not drawn) [Example 249, (E)-3-{[2-(Carboxyethyl)-1H-pyrazol-4-yl]methylidene}-1-[2-cyclopropyl-1-(2-fluorophenyl)-2-oxoethyl]-4-sulfanylpiperidine hydrochloride], in the test on platelet coagulation [1], the “Test Example 2 (% inhibition)” value worked out at 88%. The “Test Example 1 (% inhibition)” value with platelet coagulation [2] stood at 81%.
Take `O=C(O)CCCn1cc(/C=C2\CN(C(C(=O)C3CC3)c3ccccc3F)CCC2S)nn1` (stereo not drawn) [Example 143, (E)-3-{[1-(3-Carboxypropyl)-1H-1,2,3-triazol-4-yl]methylidene}-1-[2-cyclopropyl-1-(2-fluorophenyl)-2-oxoethyl]-4-sulfanylpiperidine hydrochloride]: the inhibition at 10 µg/mL in the test on platelet coagulation [1] was 69%; in the test with platelet coagulation [2], 81%.
The like results for `O=C(O)CCn1ncc(/C=C2\CN(C(C(=O)C3CC3)c3ccccc3F)CCC2S)n1` (stereo not drawn) [Example 242, (E)-3-{[2-(Carboxyethyl)-2H-1,2,3-triazol-4-yl]methylidene}-1-[2-cyclopropyl-1-(2-fluorophenyl)-2-oxoethyl]-4-sulfanylpiperidine hydrochloride] were, in that order, 82% and 75%.
Consider `CC(=O)SC1CCN(C(C(=O)C2CC2)c2ccccc2F)C/C1=C\c1ccn(CCC(=O)O)n1` (stereo not drawn) [Example 114, (E)-4-(Acetylsulfanyl)-3-{[1-(2-carboxyethyl)-1H-pyrazol-3-yl]methylidene}-1-[2-cyclopropyl-1-(2-fluorophenyl)-2-oxoethyl]piperidine hydrochloride], for which, in the test with platelet coagulation [1], the inhibition at 10 µg/mL was determined as 81%.
In the case of `O=C(O)CCn1nncc1/C=C1\CN(C(C(=O)C2CC2)c2ccccc2F)CCC1S` (stereo not drawn) [Example 134, (E)-3-{[1-(2-Carboxyethyl)-1H-1,2,3-triazol-5-yl]methylidene}-1-[2-cyclopropyl-1-(2-fluorophenyl)-2-oxoethyl]-4-sulfanylpiperidine hydrochloride], the inhibition at 10 µg/mL in the test on platelet coagulation [2] came out at 85%.
On to `O=C(CCCn1nncc1/C=C1\CN(C(C(=O)C2CC2)c2ccccc2F)CCC1S)NO` (stereo not drawn) [Example 262, (E)-1-[2-Cyclopropyl-1-(2-fluorophenyl)-2-oxoethyl]-3-({1-[3-(N-hydroxycarbamoyl)propyl]-1H-1,2,3-triazol-5-yl}methylidene)-4-sulfanylpiperidine hydrochloride], for which the results for the inhibition at 10 µg/mL in the test on platelet coagulation [1] and in the test on platelet coagulation [2] were 91% and 71%, respectively.
For the compound `CONC(=O)Cn1ccc(/C=C2\CN(C(C(=O)C3CC3)c3ccccc3F)CCC2S)n1.Cl` (stereo not drawn) [Example 192, (E)-1-[2-Cyclopropyl-1-(2-fluorophenyl)-2-oxoethyl]-3-{[1-(N-methoxycarbamoylmethyl)-1H-pyrazol-3-yl]methylidene}-4-sulfanylpiperidine hydrochloride], the “Test Example 2 (% inhibition)” value in the test with platelet coagulation [1] stood at 81%. Moreover, in the test on platelet coagulation [2], the “Test Example 1 (% inhibition)” value was found to be 84%.
With `O=C(O)Cn1ccc(/C=C2\CN(C(C(=O)C3CC3)c3ccccc3F)CCC2S)n1` (stereo not drawn) [Example 77, (E)-3-{[1-(Carboxymethyl)-1H-pyrazol-3-yl]methylidene}-1-[2-cyclopropyl-1-(2-fluorophenyl)-2-oxoethyl]-4-sulfanylpiperidine hydrochloride], the inhibition at 10 µg/mL came to 77% in the test on platelet coagulation [1] and 76% with platelet coagulation [2].

The values above are taken from US7829580B2, “Cyclic amine derivative having heteroaryl ring” (Sankyo Company, Ltd., priority 2006, dated 2010).
